Results from patent publication US11351221B2, “SMAC mimetic” (Medivir AB, priority 2009, dated 2022).
pIC50: −log10 of the molar value.

How the values were obtained:
cIAP-1 = biological target: T1, cIAP-1 (Homo sapiens, UniProt Q13490); assay: cIAP degradation assay (GFP-cIAP-1); type: cell-based; conditions: for DC50: A375Gc1 cells, 2 h treatment, 50% of GFP signal inhibited (FACS), read-out: GFP-cIAP-1 IC50; for IC50 Ratio cIAP-2/cIAP-1: ratio of GFP-cIAP-2 to GFP-cIAP-1 degradation IC50
T1 construct: expressed in transfected cells; host or cells: A375 (A375Gc1)
T1 sequence (Q13490 whole entry, species assumed): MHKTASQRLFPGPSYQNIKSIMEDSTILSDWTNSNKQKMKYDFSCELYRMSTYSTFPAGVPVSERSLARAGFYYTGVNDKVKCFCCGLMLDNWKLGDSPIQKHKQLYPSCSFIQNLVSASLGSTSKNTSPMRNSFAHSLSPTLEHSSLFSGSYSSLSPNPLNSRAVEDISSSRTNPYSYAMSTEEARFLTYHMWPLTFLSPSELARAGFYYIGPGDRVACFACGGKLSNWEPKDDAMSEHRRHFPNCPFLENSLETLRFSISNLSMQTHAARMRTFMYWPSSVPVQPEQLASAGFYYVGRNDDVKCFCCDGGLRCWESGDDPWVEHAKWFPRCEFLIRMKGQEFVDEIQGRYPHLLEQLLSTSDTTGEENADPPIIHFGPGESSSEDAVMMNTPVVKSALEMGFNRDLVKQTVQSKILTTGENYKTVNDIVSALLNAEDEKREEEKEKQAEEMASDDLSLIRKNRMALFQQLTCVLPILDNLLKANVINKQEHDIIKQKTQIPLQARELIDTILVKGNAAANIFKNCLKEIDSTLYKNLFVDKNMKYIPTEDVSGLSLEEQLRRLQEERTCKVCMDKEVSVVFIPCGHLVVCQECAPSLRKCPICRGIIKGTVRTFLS
Procedure: (§1) Briefly, A375 cell lines expressing GFP-tagged cIAP-1 and cIAP-2 were generated by transfecting HA2xEGFP-pcDNA3 vector containing either cIAP-1 (A375Gc1) or cIAP-2 (A375Gc2) coding region. 2×10^4 of A375Gc1 or A375Gc2 cells were grown in 96-well plate and treated with various concentrations of test compounds for 2 h. After incubation, cells were collected by trypsinization and suspended in 150 μl of DMEM-10% FBS. A total of 10^4 cells were analyzed using a FACScan (Becton Dickinson). GFP fluorescence was monitored by using an excitation filter at 488 nm and emission was measured with a 530 nm filter.

cIAP-2 = biological target: T2, cIAP-2 (Homo sapiens, UniProt Q13489); assay: cIAP degradation assay (GFP-cIAP-2); type: cell-based; conditions: A375Gc2 cells, 2 h treatment, 50% of GFP signal inhibited (FACS); read-out: GFP-cIAP-2 IC50
T2 construct: expressed in transfected cells; host or cells: A375 (A375Gc2)
T2 sequence (Q13489 whole entry, species assumed): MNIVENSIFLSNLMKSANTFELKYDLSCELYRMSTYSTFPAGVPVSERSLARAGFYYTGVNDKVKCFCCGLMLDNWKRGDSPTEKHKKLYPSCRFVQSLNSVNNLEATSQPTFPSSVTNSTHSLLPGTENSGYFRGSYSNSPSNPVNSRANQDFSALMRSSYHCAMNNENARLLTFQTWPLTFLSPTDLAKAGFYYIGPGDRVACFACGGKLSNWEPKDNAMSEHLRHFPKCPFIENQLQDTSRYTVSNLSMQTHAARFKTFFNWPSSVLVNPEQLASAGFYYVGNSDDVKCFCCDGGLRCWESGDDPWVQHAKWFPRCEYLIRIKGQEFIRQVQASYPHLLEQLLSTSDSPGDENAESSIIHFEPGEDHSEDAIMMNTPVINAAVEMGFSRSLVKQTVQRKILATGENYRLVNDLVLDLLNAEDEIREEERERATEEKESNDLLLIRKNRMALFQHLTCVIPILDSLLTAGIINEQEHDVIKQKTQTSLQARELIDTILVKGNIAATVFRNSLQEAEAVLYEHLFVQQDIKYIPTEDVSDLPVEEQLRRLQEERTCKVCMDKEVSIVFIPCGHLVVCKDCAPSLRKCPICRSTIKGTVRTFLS
Procedure: as §1, with “The concentration inducing degradation of cIAP-1 and cIAP-2 by 50% (IC50) for various compounds was determined by monitoring the disappearance of Green Fluorescent Protein (GFP)-signal in A375 cells. Briefly,” for “Briefly,”, “filter. IC50 is defined as the concentration of drug at which 50% of GFP signal was inhibited.” for “filter.”

[1] = tested on: SKOV-3 ovarian tumor cell; assay: SKOV-3 cytotoxicity (MTT assay); type: cell-based; conditions: Homo sapiens, SK-OV-3 cells, 72 hrs, concentration giving 50% cell survival
Procedure: SKOV-3 ovarian tumor cell cytotoxicity data were generated substantially as follows. The MTT (3-(4,5-Dimethylthiazol-2-yl)-2,5-diphenyltetrazolium bromide) assay is an example of an assay that has been used for measuring cell growth as previously described (Hansen, M. B., Nielsen, S. E., and Berg, K. (1989) J. Immunol Methods 119, 203-210) and incorporated herein by reference in its entirety. Briefly, SK-OV-3 cells were seeded in 96-well plates in McCoy's medium containing 10% fetal bovine serum albumin (5,000 per well) and incubated overnight at 37° C. The next day, test compounds were added at various concentrations (0.003-10 μM) and the plates were incubated at 37° C. for an additional 72 hrs. This incubation time was optimal for measuring inhibitory effects of different analogs. Fifty microliters of 5 mg/mL MTT reagent to each well was added and the plates were incubated at 37° C. for 3 hours. At the end of the incubation period, 50 microliters of DMSO was added to each well to dissolve cells and the optical density (OD) of the wells was measured using a microplate reader (Victor^2 1420, Wallac, Finland) at 535 nm. Cell survival (CS) was calculated by the following equation: CS=(OD treated well/mean OD control wells)×100%
The CC50, defined as the drug concentration that results in 50% CS, was derived by calculating the point where the dose-response curve crosses the 50% CS point using GraphPad Prism.

XIAP = biological target: T3, XIAP (Homo sapiens, UniProt P98170); assay: Caspase-3 derepression assay; type: biochemical; conditions: MDA-MB-231 hypotonic lysate activated with cytochrome c and dATP; zDEVD-R110(2) substrate
T3 construct: endogenous in cells; host or cells: MDA-MB-231 (ATCC), soluble hypotonic lysate
T3 sequence (P98170 whole entry): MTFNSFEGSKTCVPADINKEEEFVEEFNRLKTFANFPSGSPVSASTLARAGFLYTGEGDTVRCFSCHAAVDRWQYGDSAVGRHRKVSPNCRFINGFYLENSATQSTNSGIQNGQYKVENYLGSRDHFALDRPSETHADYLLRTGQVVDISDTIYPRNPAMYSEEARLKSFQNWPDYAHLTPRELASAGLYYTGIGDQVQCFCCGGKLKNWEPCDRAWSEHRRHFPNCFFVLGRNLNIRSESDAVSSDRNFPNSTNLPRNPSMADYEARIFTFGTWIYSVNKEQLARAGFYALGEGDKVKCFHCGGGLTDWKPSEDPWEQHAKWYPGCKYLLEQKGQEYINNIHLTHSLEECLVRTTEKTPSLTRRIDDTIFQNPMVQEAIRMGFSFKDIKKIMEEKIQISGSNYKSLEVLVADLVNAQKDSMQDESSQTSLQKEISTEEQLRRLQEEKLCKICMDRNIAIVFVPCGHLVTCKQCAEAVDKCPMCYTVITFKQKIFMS
Procedure: Cell pellet was washed one time by resuspending in 5 mL hypotonic lysis buffer (20 mM HEPES, pH7.5, 10 mM KCl, 1.5 mM MgCl2, 1.0 mM EDTA, 1.0 mM DTT) and recollected by centrifugation. Pellet was next resuspended in 1 volume of hypotonic lysis buffer supplemented with a complete protease inhibitor tablet (Roche) and allowed to swell on ice for 30 minutes. Cells were disrupted by approximately 50 passages through a 27 gauge needle. Lysis was monitored by light microscopy. Lysate was centrifuged at 12000×g for 10 minutes at 4° C. to remove membrane fraction, unlysed cells and debris. The soluble fraction was collected for protein concentration determination and subsequent assay analysis.
The hypotonic lysate (25 μg protein), 50 μg/mL cytochrome c and 10 mM dATP were combined in a microcentrifuge tube to a final volume of 9 μl in hypotonic lysis buffer followed by addition of test compound and incubated for 30 minutes at room temp. Following incubation 50 μl of hypotonic lysis buffer containing 5 μM of pro-fluorescent rhodamine-110(2) based caspase-3 substrate zDEVD-R110(2) was added and fluorescence intensity was monitored over time. Activation of the lysate by addition of cytochrome c and dATP results in apoptosome formation and subsequent activation of caspases-9 and -3.

[2] = type: in vivo; conditions: for Mortality: 3 mg/Kg, QDx4 i.v. bolus; for Bone marrow hypocellularity of the erythroid series (anatomic pathology) / Hypercellularity of the myeloid series (anatomic pathology) / Hypertrophy and hyperplasia of megakaryocytes (anatomic pathology) / Type 2 pneumocyte hypertrophy/hyperplasia in the lungs (anatomic pathology) / Clinical signs: 1 mg/kg/day
Description: Body weight loss (BWL), mortality and additional toxicity data were generated substantially as follows. […] Body weights were taken on day 4 and are shown as percent change from day 1.

[3] = tested on: MDA-MB-231 human breast tumor cells; assay: MDA-MB-231 xenograft tumor growth delay; type: in vivo, female nude mice
Procedure: MDA-MB-231 xenograft data were generated substantially as follows. MDA-MB-231 human breast tumor cells were injected into the mammary fat pad of female nude mice and dosing initiated twelve days later at an average tumor volume of approximately 148 mm^3. No tumor burden was associated with this model based on lack of weight loss or animal morbidity in control groups. Mice were injected subcutaneously into the mammary fat pad with 1×10^7 cells suspended in 200 μl of a 1:1 HBSS: Matrigel solution; injected cells were within nine passages of the original lot. Pre-study tumor volumes were recorded beginning approximately one week prior to the estimated start date. When tumors reached approximately 150 mm^3 animals are matched by tumor volume into treatment and control groups and dosing initiated (Day 0); mice are tagged and followed individually throughout the experiment. Animals were dosed by weight (0.01 mL per gram; 10 ml/Kg).
Beginning on Day 0, animals were observed daily and weighed twice weekly using a digital scale (Ohaus SP601); data including individual and mean gram weights (Mean We±SD), mean percent weight change versus Day 0 (% vD0) and mean percent weight change versus prior measurement (% vD−x) were recorded for each group and plotted at study completion.
Beginning on Day 0, tumor dimensions were measured twice weekly by digital caliper (Fowler Ultra-Cal IV) and data including individual and mean estimated tumor volumes (Mean TV±SEM) recorded for each group; tumor volume was calculated using the formula: TV=width^2×length×0.52. Individual mice reaching the designated study endpoint (an estimated tumor volume of approximately 1 cm^3) were assigned a time to endpoint (TTE) value corresponding to that day; the tumor growth delay (TGD) study was concluded once all mice reach the study endpoint or sixty days following study initiation. At study completion, TGD and % TGD are calculated using the median TTE (MTTE) value for each treatment (T) group versus control (C) by the formulas: TGD(days)=T−C and % TGD=T−C/C×100, wherein T−C is the difference between MTTE-Treatment Group and MTTE-Control. Tumored animals not reaching the designated volume endpoint by study completion are considered long-term survivors (LTS) and assigned a TTE value corresponding to the final study day; tumor-free animals are not included in TGD calculations. A Log-rank test is used to determine statistically significant differences in overall survival experience between each treated group compared to control. Individual mice reporting a tumor volume ≤50% of the Day 0 measurement for two consecutive measurements over a seven day period were considered partial responders (PR). If the PR persisted until study completion, percent tumor regression (% TR) was determined using the formula: % TR=1−Tf/Ti×100; a mean value was calculated if multiple PR mice occurred in one group. Individual mice lacking palpable tumors (<4×4 mm^2 for two consecutive measurements over a seven day period) were classified as complete responders (CR); a CR that persisted until study completion was considered a tumor-free survivor (TFS); TFS animals are excluded from TGD calculations and statistical analysis. Statistical differences in MTTE values between control and treatment groups are compared using a Log Rank test.

Structure (SMILES)	DC50 (cIAP-1)	IC50 Ratio cIAP-2/cIAP-1 (cIAP-1)	DC50 (cIAP-2)	CC50 [1]	pIC50 (XIAP)	Mortality ([2]; rat)	Bone marrow hypocellularity of the erythroid series (anatomic pathology) ([2]; rat, in vivo)	Hypercellularity of the myeloid series (anatomic pathology) ([2]; rat, in vivo)	Hypertrophy and hyperplasia of megakaryocytes (anatomic pathology) ([2]; rat, in vivo)	Type 2 pneumocyte hypertrophy/hyperplasia in the lungs (anatomic pathology) ([2]; rat, in vivo)	Clinical signs ([2]; rat, in vivo, iv)	other results
CN[C@@H](C)C(=O)N[C@H](C(=O)N1C[C@@H](O)C[C@H]1Cc1c(-c2[nH]c3cc(F)ccc3c2C[C@@H]2C[C@H](O)CN2C(=O)[C@@H](NC(=O)[C@H](C)NC)C(C)C)[nH]c2cc(F)ccc12)C(C)C [Compound 2]	4 nM	1.8	7 nM	0.5 nM	7.87							
CN[C@@H](C)C(=O)N[C@H](C(=O)N1C[C@@H](O)C[C@H]1Cc1c(-c2[nH]c3cc(F)ccc3c2C[C@@H]2C[C@H](O)CN2C(=O)[C@@H](NC(=O)[C@H](C)NC)[C@@H](C)O)[nH]c2cc(F)ccc12)[C@@H](C)O [Compound 3]	328 nM	2.1	674 nM	13 nM	9.70							
CN[C@@H](C)C(=O)N[C@H](C(=O)N1C[C@@H](O)C[C@H]1Cc1c(-c2[nH]c3cc(F)ccc3c2C[C@@H]2C[C@H](O)CN2C(=O)[C@@H](NC(=O)[C@H](C)NC)[C@H](C)O)[nH]c2cc(F)ccc12)[C@H](C)O [Compound 4]	464 nM	1.3	604 nM	2 nM	9.46	caused the animals to die	marked to severe	mild to moderate	mild to moderate	mild to moderate	lethargy, increased/irregular respiration and increased heart rate	
CN[C@@H](C)C(=O)N[C@H](C(=O)N1C[C@@H](O)C[C@H]1Cc1c(-c2[nH]c3cc(F)ccc3c2C[C@@H]2C[C@H](O)CN2C(=O)[C@@H](NC(=O)[C@H](C)NC)[C@@H](C)OC)[nH]c2cc(F)ccc12)[C@@H](C)OC [Compound 5]	10 nM	3.7	37 nM	0.13 nM	9.44	caused the animals to die	marked to severe	mild to moderate	mild to moderate	mild to moderate	lethargy, increased/irregular respiration and increased heart rate	Long-term survivors ([3]; 15 mg/Kg i.p., q3dx5): 3/10; Partial tumor regression ([3]; 15 mg/Kg i.p., q3dx5): five; T−C value (tumor growth delay) ([3]; 15 mg/Kg i.p., q3dx5): 21 days; Weight loss compared to mice dosed with Compound 15 at 20 mg/Kg ([3]; nude mice, 15 mg/Kg i.p., q3dx5): greater; Additional clinical observations ([2]; rat, in vivo, 1 mg/kg): dehydration, ungroomed appearance, chromorhinorrhea, alopecia (head), and excessive scratching
CC[C@H](NC(=O)[C@H](C)NC)C(=O)N1C[C@@H](O)C[C@H]1Cc1c(-c2[nH]c3cc(F)ccc3c2C[C@@H]2C[C@H](O)CN2C(=O)[C@H](CC)NC(=O)[C@H](C)NC)[nH]c2cc(F)ccc12 [Compound 15, N-{1S-[2R-(6,6′-Difluoro-3′-{4S-hydroxy-1-[2S-(2S-methylamino-propionylamino)-butyryl]-pyrrolidin-2R-ylmethyl}-1H,1′H-[2,2′]biindolyl-3-ylmethyl)-4S-hydroxy-pyrrolidine-1-carbonyl]-propyl}-2S-methylamino-propionamide]			174 nM	0.14 nM								Long-term survivors ([3]; 20 mg/Kg i.p., q3dx5): 6/10; Partial tumor regression ([3]; 20 mg/Kg i.p., q3dx5): three; T−C value (tumor growth delay) ([3]; 20 mg/Kg i.p., q3dx5): 22 days; Long-term survivors ([3]; 40 mg/Kg i.p., q3dx5): 9/10; Partial tumor regression ([3]; 40 mg/Kg i.p., q3dx5): three; T−C value (tumor growth delay) ([3]; 40 mg/Kg i.p., q3dx5): 22 days; Long-term survivors ([3]; 60 mg/Kg i.p., q3dx5): 8/10; Partial tumor regression ([3]; 60 mg/Kg i.p., q3dx5): seven; T−C value (tumor growth delay) ([3]; 60 mg/Kg i.p., q3dx5): 22 days; Minimal effective dose ([3]; MDA-MB-231 xenograft model, subsequent studies): less than 1 mg/Kg; Tolerability in the rat as compared to Compounds 4 and 5, dose per dose ([2]; Sprague-Dawley, in vivo, iv, 4 days): approximately 5 fold
